Results taken from patent US9314530B2, “Composition, in aqueous medium, that comprises at least a hyaluronic acid and at least an hydrosoluble salt of sucrose octasulfate” (LABORATOIRES VIVACY, priority 2012, dated 2016).

Legend:
Format in all cases: physicochemical
[1] = Stability with regard to steam autoclaving: viscosity of non-crosslinked hyaluronic acid compositions (rheometer)
Procedure: For the compositions according to the invention comprising non-crosslinked hyaluronic acid, the viscosity η of the sterilized compositions after the steam autoclaving step is characterized on a TA Instruments AR 2000 Ex rheometer, under controlled constraint conditions, at 25° C. The viscosity value is recorded at a constraint of 0.02 s^−1.
(§1) For the compositions comprising non-crosslinked hyaluronic acid, the percentage of loss in the viscosity is the value of the difference in the viscosity of the reference composition after steam autoclaving and the viscosity of the composition comprising non-crosslinked hyaluronic acid and a sulphated oligo-polysaccharide or a sulphated monosaccharide after steam autoclaving over the value of the viscosity of the reference composition after steam autoclaving.
(§2) For these all measurements, a reference composition is formulated, the aqueous solution of sulphated oligo-polysaccharide or of sulphated monosaccharide being replaced by the same amount of aqueous solution of phosphate buffer.
Nine compositions comprising non-crosslinked hyaluronic acid and a sulphated oligo-polysaccharide or a sulphated monosaccharide at a concentration of 1 mg/g in the composition are prepared according to the procedure described in Example 1.
A reference composition is also formulated, the aqueous solution of sulphated oligo-polysaccharide or of sulphated monosaccharide being replaced by the same amount of aqueous solution of phosphate buffer.
A series of five compositions comprising non-crosslinked hyaluronic acid, mannitol and a sulphated oligo-polysaccharide or a sulphated monosaccharide at a concentration of 1 mg/g in the composition is prepared according to the procedure described in Example 3.
Examples of tests on formulations of KSOS (at different concentrations) with a non-crosslinked gel of Example 1 at the concentrations and ratios described in Table 7 below.
The gels are sterilized and then characterized by rheology according to Example 8.

[2] = Stability with regard to steam autoclaving: elastic component G′ of crosslinked hyaluronic acid compositions (rheometer)
Procedure: For the compositions according to the invention comprising crosslinked hyaluronic acid, the elastic component G′ of the sterilized compositions after the autoclaving step is characterized on a TA Instruments AR 2000 Ex rheometer, under oscillation conditions, at 25° C., the values of the elastic component being recorded at a frequency of 1 Hz.
as §1, with “crosslinked” for “non-crosslinked”, “elastic component G′” for “viscosity”
as §2
A series of four compositions comprising crosslinked hyaluronic acid, mannitol and a sulphated oligo-polysaccharide or a sulphated monosaccharide at a concentration of 1 mg/g in the composition is prepared according to the procedure described in Example 4.
A reference composition is also formulated, the aqueous solution of sulphated oligo-polysaccharide or of sulphated monosaccharide being replaced by an equivalent amount of aqueous solution of phosphate buffer.
Examples of tests on formulations of KSOS (at different concentrations) with a 20 mg/g crosslinked NaHA gel (IPN-like gel, sold under the Stylage® M brand), which is the reference gel.
The gels are sterilized and then characterized.
The percentage of loss in the elastic component G′ with respect to the reference composition is measured according to Example 8 and the difference between the injectability force, through 30-gauge ½ hypodermic needles, of the reference gel and of the gels comprising potassium sucrose octasulphate is measured.
Example of test on formulation of KSOS with a gel comprising crosslinked hyaluronic acid at the concentration and at the ratio described in Table 8 below.
The gels are prepared according to the procedure described in Example 2 and are then characterized by rheology according to Example 8.

[3] = Solubility of salts of sucrose octasulphate
[4] = after steam autoclaving, non-crosslinked hyaluronic acid + sulphated saccharide at 1 mg/g (procedure of Example 1), viscosity at 25° C., 0.02 s^−1
[5] = after steam autoclaving, crosslinked hyaluronic acid + mannitol + sulphated saccharide at 1 mg/g (procedure of Example 4), 25° C., 1 Hz
[6] = after steam autoclaving, non-crosslinked hyaluronic acid + mannitol + sulphated saccharide at 1 mg/g (procedure of Example 3)

| Compound | % of loss in the viscosity with respect to the reference composition [1, 4] [%] | % of loss in the elastic component G′ with respect to the reference composition [2, 5] [%] | % of loss in the viscosity with respect to the reference composition [1, 6] [%] | other results |
| --- | --- | --- | --- | --- |
| CC(=O)N[C@H]1C(O)O[C@H](COS(=O)(=O)O)[C@@H](O)[C@@H]1O (stereo partly drawn) [N-Acetyl-D-glucosamine-6-sulphate, reference compound] | 96 | 32 | 60 |  |
| O=S(=O)(O)N[C@H]1C(O)O[C@H](CO)[C@@H](O)[C@@H]1O (stereo partly drawn) [D-Glucosamine-2-sulphate, reference compound] | 87 | 18 | 25 |  |
| Potassium sucrose octasulphate | 0 | 0 | 0 | % of loss in the elastic component G′ with respect to the reference composition ([2]; after autoclaving, crosslinked NaHA 10.3 mg/g, KSOS 25 mg/g, [HA]/[SOS] 0.4 (procedure of Example 2)): 0%; % of loss in the elastic component G′ with respect to the reference composition ([2]; after steam autoclaving, crosslinked hyaluronic acid + mannitol + sulphated saccharide at 1 mg/g (procedure of Example 4), 25° C., 1 Hz, listed as potassium sucrose octasulphate): no loss; % of loss in the viscosity with respect to the reference composition ([1]; after autoclaving, non-crosslinked NaHA 4 mg/g, KSOS 40 mg/g, [HA]/[SOS] 0.1): 0%; % of loss in the viscosity with respect to the reference composition ([1]; after autoclaving, non-crosslinked NaHA 10 mg/g, KSOS 10 mg/g, [HA]/[SOS] 1): 0%; % of loss in the viscosity with respect to the reference composition ([1]; after autoclaving, non-crosslinked NaHA 10 mg/g, KSOS 20 mg/g, [HA]/[SOS] 0.5): 0%; % of loss in the viscosity with respect to the reference composition ([1]; after autoclaving, non-crosslinked NaHA 20 mg/g, KSOS 10 mg/g, [HA]/[SOS] 2): 0%; % of loss in the viscosity with respect to the reference composition ([1]; after autoclaving, non-crosslinked NaHA 20 mg/g, KSOS 20 mg/g, [HA]/[SOS] 1): 0%; % of loss in the viscosity with respect to the reference composition ([1]; after autoclaving, non-crosslinked NaHA 25 mg/g, KSOS 0.01 mg/g, [HA]/[SOS] 2500): 0%; % of loss in the viscosity with respect to the reference composition ([1]; after autoclaving, non-crosslinked NaHA 25 mg/g, KSOS 0.05 mg/g, [HA]/[SOS] 500): 0%; maximum solubility [3]: 40 mg/g |
| N[C@H]1C(O)O[C@H](COS(=O)(=O)O)[C@@H](O)[C@@H]1O (stereo partly drawn) [D-Glucosamine-6-sulphate, reference compound] | 98 | 74 | 90 |  |
| O=S(=O)([O-])OC[C@H]1O[C@@](COS(=O)(=O)[O-])(O[C@H]2O[C@H](COS(=O)(=O)[O-])[C@@H](OS(=O)(=O)[O-])[C@H](OS(=O)(=O)[O-])[C@H]2OS(=O)(=O)[O-])[C@@H](OS(=O)(=O)[O-])[C@@H]1OS(=O)(=O)[O-].[Na+].[Na+].[Na+].[Na+].[Na+].[Na+].[Na+].[Na+] [Sodium sucrose octasulphate] | 0 |  | 0 | solubility compared with the potassium salt [3]: greater than that of the potassium salt |

Further lines, with some results ahead:

| % of loss in the viscosity with respect to the reference composition [1, 4] [%] | % of loss in the elastic component G′ with respect to the reference composition [2, 5] [%] | % of loss in the viscosity with respect to the reference composition [1, 6] [%] | Compound | other results |
| --- | --- | --- | --- | --- |
| 62 |  |  | Chondroitin sulphate [reference compound] |  |
| 94 |  |  | Disulphated carrageenan(disaccharide) [reference compound] |  |
| 92 |  |  | Hexasulphated carrageenan(hexasaccharide) [reference compound] |  |
| 16 |  |  | Dextran sulphate(40000) [reference compound] |  |
